In brackets after ≈: the same amount, converted by molar mass. Activity calls are given as the source filed them. The rule behind the calls is not given here.
Columns and labels:
P388 = test: Antitumor activity against mouse P388 cells allografted in DBA/2 mouse at 25 mg/kg/day, ip relative to control; format: functional; conditions: route intraperitoneal
W256 = test: Antitumor activity against rat Walker 256 cells allografted in Sprague-Dawley rat at 2.5 mg/kg/day, ip relative to control; format: functional; conditions: route intraperitoneal
Ehrlich [1] = test: Antitumor activity against mouse EAC cells allografted in CF1 mouse assessed as ascitocrit count per mililitre of fluid at 0.25 mg/day administered from day 5 to day 7 measured on day 8 by hemocytometry relative to control; format: functional
[2] = Binding affinity to dGTP (unknown origin) at 0.015 ug at pH 7.2 after 24 hrs by UV-spectrophotometry
Ehrlich [3] = test: Antitumor activity against mouse EAC cells allografted in CF1 mouse assessed as tumor growth inhibition at 33.3 mg/kg/day, ip after 7 days; format: functional; conditions: 168 h, route intraperitoneal, read-out: TGI
Ehrlich [4] = test: Antitumor activity against mouse EAC cells allografted in CF1 mouse assessed as chromatin protein content at 0.25 mg/day administered from day 5 to day 7 measured on day 8 relative to control; format: functional
[5] = Binding affinity to dAMP (unknown origin) at 0.015 ug by UV-spectrophotometry
Ehrlich [6] = test: Antitumor activity against mouse EAC cells assessed as nuclear DNA polymerase activity at 0.6 mg measured on day 8 relative to control; format: functional
Ehrlich [7] = test: Antitumor activity against mouse EAC cells allografted in CF1 mouse assessed as survival at 33.3 mg/kg/day, ip after 7 days; format: functional, organism-based
Ehrlich [8] = test: Antitumor activity against mouse EAC cells allografted in CF1 mouse assessed as [gamma-32P] incorporation into histone at 0.25 mg/day administered from day 5 to day 7 measured on day 8 relative to control; format: functional
Ehrlich [9] = test: Antitumor activity against mouse EAC cells allografted in CF1 mouse assessed as free lysosomal DNAse activity at 0.25 mg/day administered from day 5 to day 7 measured on day 8 relative to control; format: functional
Ehrlich [10] = test: Antitumor activity against mouse EAC cells allografted in CF1 mouse assessed as cell viability at 0.25 mg/day administered from day 5 to day 7 measured on day 8 by trypan blue assay relative to control; format: functional, cell-based
[11] = Cytotoxicity against human Hep2 cells; format: functional; conditions: HEp-2, read-out: ED50 (the source's name)
Ehrlich [12] = test: Antitumor activity against mouse EAC cells allografted in CF1 mouse assessed as 3',5' cAMP level at 0.25 mg/day administered from day 5 to day 7 measured on day 8 by RIA relative to control; format: functional
[13] = Binding affinity to dATP (unknown origin) at 0.015 ug by UV-spectrophotometry
Ehrlich [14] = test: Antitumor activity against mouse EAC cells allografted in CF1 mouse assessed as DNA content at 0.25 mg/day administered from day 5 to day 7 measured on day 8 by UV-spectrophotometry relative to control; format: functional
Ehrlich [15] = test: Antitumor activity against mouse EAC cells assessed as tissue SH stimulation at 0.6 mg measured on day 8 by Ellman method relative to control; format: functional
Ehrlich [16] = test: Antitumor activity against mouse EAC cells allografted in CF1 mouse assessed as nuclear DNA polymerase activity at 0.25 mg/day administered from day 5 to day 7 measured on day 8 relative to control; format: functional
[17] = Binding affinity to dGMP (unknown origin) at 0.015 ug at pH 7.2 after 24 hrs by UV-spectrophotometry
Ehrlich [18] = test: Antitumor activity against mouse EAC cells allografted in CF1 mouse assessed as [methyl-14C]thymidine incorporation to DNA at 0.25 mg/day administered from day 5 to day 7 measured on day 8 by scintillation counting analysis relative to control; format: functional
[19] = Binding affinity to DNA (unknown origin) at 0.015 ug at pH 7.2 after 24 hrs by UV-spectrophotometry
[20] = Binding affinity to dGMP (unknown origin) by NMR analysis
Ehrlich [21] = test: Antitumor activity against mouse EAC cells allografted in CF1 mouse assessed as cell viability at 0.125 mg/day administered from day 5 to day 7 measured on day 8 by trypan blue assay relative to control; format: functional, cell-based
Ehrlich [22] = test: Antitumor activity against mouse EAC cells allografted in CF1 mouse assessed as [gamma-32P] incorporation into nonhistone at 0.125 mg/day administered from day 5 to day 7 measured on day 8 relative to control; format: functional
Ehrlich [23] = test: Antitumor activity against mouse EAC cells allografted in CF1 mouse assessed as free lysosomal DNAse activity at 0.125 mg/day administered from day 5 to day 7 measured on day 8 relative to control; format: functional
[24] = Stability of the compound assessed as reactivity with L-cysteine at 10 mg after 4 hrs by NMR analysis; format: physicochemical
[25] = Stability of the compound assessed as reactivity with reduced glutathione at 10 mg after 4 hrs by NMR analysis; format: physicochemical
[26] = Stability of the compound assessed as reactivity with oxidized glutathione at 10 mg after 4 hrs by NMR analysis; format: physicochemical
Ehrlich [27] = test: Antitumor activity against mouse EAC cells allografted in CF1 mouse assessed as ascitocrit count per mililitre of fluid at 0.125 mg/day administered from day 5 to day 7 measured on day 8 by hemocytometry relative to control; format: functional
Ehrlich [28] = test: Antitumor activity against mouse EAC cells allografted in CF1 mouse assessed as chromatin protein content at 0.125 mg/day administered from day 5 to day 7 measured on day 8 relative to control; format: functional
Ehrlich [29] = test: Antitumor activity against mouse EAC cells allografted in CF1 mouse assessed as [gamma-32P] incorporation into histone at 0.125 mg/day administered from day 5 to day 7 measured on day 8 relative to control; format: functional
Ehrlich [30] = test: Antitumor activity against mouse EAC cells allografted in CF1 mouse assessed as [methyl-14C]thymidine incorporation to DNA at 0.125 mg/day administered from day 5 to day 7 measured on day 8 by scintillation counting analysis relative to control; format: functional
Ehrlich [31] = test: Antitumor activity against mouse EAC cells allografted in CF1 mouse assessed as nuclear DNA polymerase activity at 0.125 mg/day administered from day 5 to day 7 measured on day 8 relative to control; format: functional
Ehrlich [32] = test: Antitumor activity against mouse EAC cells allografted in CF1 mouse assessed as 3',5' cAMP level at 0.125 mg/day administered from day 5 to day 7 measured on day 8 by RIA relative to control; format: functional
Ehrlich [33] = test: Antitumor activity against mouse EAC cells allografted in CF1 mouse assessed as DNA content at 0.125 mg/day administered from day 5 to day 7 measured on day 8 by UV-spectrophotometry relative to control; format: functional
[34] = Stability of the compound assessed as reactivity with reduced glutathione at 28 mg after 16 hrs by NMR analysis; format: physicochemical
[35] = Stability of the compound assessed as reactivity with L-cysteine by NMR analysis; format: physicochemical
[36] = Stability of the compound assessed as reactivity with histidine at 28 mg after 7 days by NMR analysis; format: physicochemical; conditions: 168 h

SMILES	T/C (P388) [%]	T/C (W256) [%]	Activity [2]	inhibition in vivo at 33.3 mg/kg/day (Ehrlich [3]) [%]	Activity [5]	Activity (Ehrlich [6]) [%]	Survival (Ehrlich [7])	EC50 [11] [µg/mL]	Activity [13]	Activity (Ehrlich [15]) [%]	Activity [17]	Activity [19]	also measured
C[C@@H]1C[C@@H]2OC(=O)[C@]3(C)[C@H]2[C@@H](OC3(C)O)[C@]2(C)C(=O)C=C[C@@H]12 (stereo partly drawn) [TENULIN]	131	266	inactive	97.3	inactive	88	Active	4.5 (≈ 14.7 µM)	inactive	203	inactive	inactive	Activity (Ehrlich [1]): 43%; Activity (Ehrlich [4]): 92%; Activity (Ehrlich [8]): 17%; Activity (Ehrlich [9]): 29%; Activity (Ehrlich [10]): inactive; Activity (Ehrlich [12]): 236%; Activity (Ehrlich [14]): 73%; Activity (Ehrlich [16]): 71%; Activity (Ehrlich [18]): 9%
C=C1C(=O)O[C@@H]2C[C@@H](C)[C@@H]3C=CC(=O)[C@@]3(C)[C@@H](O)[C@H]12 [HELENALIN]	127	316	inactive	100	inactive	35	–	0.1 (≈ 0.381 µM)	inactive	183	inactive	inactive	Activity [20]: inactive; Activity (Ehrlich [21]): inactive; Activity (Ehrlich [22]): 63%; Activity (Ehrlich [23]): 25%; Stability [24]: Stable; Stability [25]: Stable; Stability [26]: Unstable; Activity (Ehrlich [27]): 70%; Activity (Ehrlich [28]): 83%; Activity (Ehrlich [29]): 30%; Activity (Ehrlich [30]): 12%; Activity (Ehrlich [31]): 52%; Activity (Ehrlich [32]): 292%; Activity (Ehrlich [33]): 66%
O=C1C=CCC1	–	188	–	74.8	–	–	Active	50 (≈ 609 µM)	–	–	–	–	Stability [34]: Stable; Stability [35]: Stable; Stability [36]: Unstable
C[C@@H]1C[C@H]2OC(=O)[C@@H](C)[C@H]2[C@H](O)[C@]2(C)C(=O)C=C[C@@H]12	134	207	–	100	–	–	Active	0.814 (≈ 3.08 µM)	–	–	–	–	–
Sc1ncnc2nc[nH]c12 [MERCAPTOPURINE ANHYDROUS]	–	–	–	99.4	–	–	Active	–	–	–	–	–	–
C[C@@H]1C[C@@H]2OC(=O)[C@]3(C)[C@@H]2[C@@H](OC3(C)O)[C@]2(C)C(=O)CC(SC[C@H](N)C(=O)O)[C@@H]12 (stereo partly drawn)	–	–	–	15.8	–	–	Active	13.7 (≈ 32 µM)	–	–	–	–	–

Reference: ChEMBL document CHEMBL3272037, “Antitumor agents. 21. A proposed mechanism for inhibition of cancer growth by tenulin and helenalin and related cyclopentenones” (J Med Chem, 1977)
